The record followed here is US20240252677A1, “ONE-COMPONENT DELIVERY SYSTEM FOR NUCLEIC ACIDS” (The Trustees of the University of Pennsylvania, priority 2021, published 2024).

The subject of series [1] is lung. Put plainly: In vivo mRNA delivery, IVIS imaging of organs: lung. To be noted: for Organs with luminescence: lung: Table 17, IVIS, 4-6 h after injection, intensity relative to other organs; for Organs with luminescence: lung / activity in lung (in words): mice; for activity in lung (in words): Luc-mRNA DNPs. Details: species or system mice; key to Organs with luminescence: lung: strong: Strong meant the luminescence intensity in that organ was relatively high, compared to other organs; weak: Weak meant the luminescence intensity in that organ was relatively low, compared to other organs. The method, then: (§1) The exposure time was 1 min.
(§2) Tissue luminescence signal was measured on the IVIS imaging system using an exposure time of 60 seconds using medium binning (binning=8) to ensure that the signal obtained was within operative detection range. […] Bioluminescence imaging was performed as described above.
(§3) Tissue luminescence signal was measured on the IVIS imaging system using a certain exposure time (60, 30 or 15 seconds) and medium binning (binning=8) to ensure that the signal obtained was within operative detection range.

Series [2] has as its system HEK293T cells. In words: In vitro Luc-mRNA transfection, luciferase luminescence expression in HEK293T cells. It counts as cell-based, human. Details: unit not given here. To be noted: n=3. In outline:
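HEK293T cells were transfected with nucleoside-modified firefly luciferase mRNA at 125 ng/well delivered in the test particles. TransIT and MC3-based LNPs at equal mRNA dose served as comparators. After 24 h (18-20 h in some runs) at 37° C the cells were lysed, and luciferase luminescence was read on a luminometer, in triplicate.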

For series [3], the system named is BALB/c mice. In words: In vivo mRNA delivery in mice with DNPs, whole-body bioluminescence imaging (IVIS). To be noted: for In vivo activity (total flux, p/s): Table 19, nonsymmetric IAJDs. The method, then:
as §1
Luminescence characterization for in vivo transfection experiments employed bioluminescence imaging with an IVIS Spectrum imaging system (PerkinElmer, Waltham, MA). Mice were anesthetized with 3% of isoflurane (Piramal Healthcare Limited) and intraperitoneally (i.p.) administered with D-luciferin (Regis Technologies) at a dose of 150 mg/kg of body weight. Ten minutes post administration of D-luciferin, mice were placed on the imaging platform while being maintained on isoflurane via a nose cone and imaged using an exposure time of 60 seconds. […] To quantify luminescent flux, an oval ROI was placed over each organ of interest and analyzed.
as §2
Luminescence Characterization for In Vivo Transfection Experiments: bioluminescence imaging was performed with an IVIS Spectrum imaging system (PerkinElmer, Waltham, MA).

Series [4] concerns liver. In words: In vivo mRNA delivery, IVIS imaging of organs: liver. The arrangement: species or system mice; key to Organs with luminescence: liver: strong: Strong meant the luminescence intensity in that organ was relatively high, compared to other organs; weak: Weak meant the luminescence intensity in that organ was relatively low, compared to other organs. To be noted: for Organs with luminescence: liver: Table 17, mice, IVIS, 4-6 h after injection, intensity relative to other organs. The method, then: as §1, §2, §3

Series [5] in a line: Stability of DNPs by DLS after storage at 5° C. It counts as physicochemical. The arrangement: key: Excellent: the original sizes and distribution types remained almost the same after storage; Good: the original sizes and distribution types changed slightly (size difference was less than 100 nm) or the original size remained almost the same but the DLS curve showed more size distributions after storage. As for the experimental part: The stability of the DNPs as assayed by DLS. All the samples are prepared in acetate buffer. The stabilities of the constructs were ranked: Excellent (in bold)—the original sizes and distribution remains almost the same after storage; Good—the original relatively big sizes became smaller or broad size distribution became narrower; Not stable—the original relatively big sizes or broad size distribution remained almost the similar level, or the original relatively small sizes became bigger or narrow size distribution became broader.

[6] abbreviates: Table 14, imaging 6 h after injection.
[7] abbreviates: Table 16, HEK 293T cells, 125 ng/well.

Turning to `CCCCCCCCCCCCCCCCCCOc1cc(COC(=O)CCCN2CCN(C)CC2)cc(OCCCCCCCCCCCC)c1` [IAJD 107, 3-(Dodecyloxy)-5-(octadecyloxy)benzyl 4-(4-methylpiperazin-1-yl)butanoate], in series [1] (setting [6]), the “Organs with luminescence: lung (weak/strong)” value is recorded as “Lung (weak),”. Besides, the “Organs with luminescence: lung” value in series [1] is on record as “Lung (weak),”. Further, the Luminescence in series [2] (HEK293T cells, Luc-mRNA 125 ng/well) is reported as 93,745. In addition, the “In vivo activity (total flux, p/s)” value in series [3] is on record as 2.19 × 10^7 p/s. The “Organs with luminescence: liver (weak/strong)” value in series [4] (setting [6]) was “liver (weak),”. For the same compound, in series [4], the “Organs with luminescence: liver” value was “liver (weak),”.
`CCCCCCCCCCCCOc1cc(COC(=O)c2cc(OCCOCCOCCCC(=O)CCCN3CCCCC3)c(OCCOCCOCCOCc3ccccc3)c(OCCOCCOCCOC(=O)CCCN3CCCCC3)c2)cc(OCCCCCCCCCCCC)c1` [IAJD 110]: in series [1], the “Organs with luminescence: lung” value is given as “Lung (strong)” and the “activity in lung (in words)” value is on record as “very high activity to lung”. Besides, in series [5] (after 75 days at 5° C.), the Ranking of stability result is recorded as “Excellent”. Further, the Luminescence in series [2] (setting [7]) is given as 47.
For `CCCCCCCCCCCOc1cc(COC(=O)c2cc(OCCOCCOCCCC(=O)CCCN3CCCCC3)c(OCCOCCOCCOCc3ccccc3)c(OCCOCCOCCOC(=O)CCCN3CCCCC3)c2)cc(OCCCCCCCCCCC)c1` [IAJD 111], in series [1], the “Organs with luminescence: lung” value was “Lung (strong),” and the “activity in lung (in words)” value is “very high activity to lung”. For the same compound, the Ranking of stability entry in series [5] (after 75 days at 5° C.) is “Excellent”. For the same compound, the Luminescence in series [2] (setting [7]) is on record as 41.
Take `CCCCCCCCCCCOc1cc(COC(=O)CCCN2CCN(CCO)CC2)cc(OCCCCCCCC)c1` [IAJD 113, 3-(Octyloxy)-5-(undecyloxy)benzyl 4-(4-(2-hydroxyethyl)piperazin-1-yl)butanoate]: the Ranking of stability result in series [5] (after 70 days at 5° C.) is reported as “Excellent”. The Luminescence in series [2] (setting [7]) is reported as 78,118. Besides, in series [3], the “In vivo activity (total flux, p/s)” value is given as 1.70 × 10^7 p/s.
Consider `CCCCCCCCCCCOc1cc(COC(=O)CCCN2CCN(C)CC2)cc(OCCCCCCCCCC)c1` [IAJD 114, 3-(Decyloxy)-5-(undecyloxy)benzyl 4-(4-methylpiperazin-1-yl)butanoate], for which the “Organs with luminescence: lung” value in series [1] is “Lung (weak),”. The Ranking of stability result in series [5] (after 75 days at 5° C.) is recorded as “Good”. For the same compound, the Luminescence in series [2] (setting [7]) is 1,580. For the same compound, the “In vivo activity (total flux, p/s)” value in series [3] is 3.56 × 10^6 p/s. In series [4], the “Organs with luminescence: liver” value was “liver (weak),”.
In the case of `CCCCCCCCCCCOc1cc(COC(=O)CCCN2CCN(CCO)CC2)cc(OCCCCCCCCCC)c1` [IAJD 115, 3-(Decyloxy)-5-(undecyloxy)benzyl 4-(4-(2-hydroxyethyl)piperazin-1-yl)butanoate], in series [1], the “Organs with luminescence: lung” value is recorded as “Lung (weak),”. The Ranking of stability result in series [5] (after 70 days at 5° C.) was “Excellent”. Further, in series [2] (setting [7]), the Luminescence is reported as 390,021. For the same compound, the “In vivo activity (total flux, p/s)” value in series [3] was 4.59 × 10^6 p/s.
On to `CCCCCCCCCCCCCOc1cc(COC(=O)CCCN2CCN(C)CC2)cc(OCCCCCCCCCCC)c1` [IAJD 116, 3-(Tridecyloxy)-5-(undecyloxy)benzyl 4-(4-methylpiperazin-1-yl)butanoate], for which, in series [1], the “Organs with luminescence: lung” value is given as “Lung (weak),”. In addition, the Ranking of stability entry in series [5] (after 62 days at 5° C.) is given as “Excellent”. In addition, in series [2] (setting [7]), the Luminescence was 192,213. Also, the “In vivo activity (total flux, p/s)” value in series [3] is on record as 2.38 × 10^7 p/s. In addition, the “Organs with luminescence: liver” value in series [4] is “liver (weak),”.
`CCCCCCCCCCCCCCCCOc1cc(COC(=O)CCCN2CCN(CCO)CC2)cc(OCCCCCCCCCCC)c1` [IAJD 120, 3-(Hexadecyloxy)-5-(undecyloxy)benzyl 4-(4-(2-hydroxyethyl)piperazin-1-yl)butanoate]: the Ranking of stability result in series [5] (after 70 days at 5° C.) is on record as “Excellent”. In addition, the Luminescence in series [2] (setting [7]) is 443,836. Further, the “In vivo activity (total flux, p/s)” value in series [3] is 2.48 × 10^7 p/s.
For the compound `CCCCCCCCCCCOc1cc(COC(=O)CCCN2CCN(CCO)CC2)cc(OCCCCCCCCC)c1` [IAJD 122, 3-(Nonyloxy)-5-(undecyloxy)benzyl 4-(4-(2-hydroxyethyl)piperazin-1-yl)butanoate], the “Organs with luminescence: lung” value in series [1] is on record as “Lung (weak),”. In addition, the Ranking of stability entry in series [5] (after 62 days at 5° C.) was “Excellent”. Besides, in series [2] (setting [7]), the Luminescence was 55,101. The “In vivo activity (total flux, p/s)” value in series [3] is recorded as 2.50 × 10^7 p/s.
For `CCCCCCCCCCCCOc1cc(COC(=O)CCCN2CCN(CCO)CC2)cc(OCCCCCCCCCCC)c1` [IAJD 124, 3-(Dodecyloxy)-5-(undecyloxy)benzyl 4-(4-(2-hydroxyethyl)piperazin-1-yl)butanoate] the same measures were “Lung (weak),”, “Good”, 145,115 and 3.77 × 10^7 p/s.
On to `CCCCCCCCCCCCCCOc1cc(CNC(=O)CCCN2CCN(C)CC2)cc(OCCCCCCCCCCC)c1` [IAJD 133, 4-(4-Methylpiperazin-1-yl)-N-(3-(tetradecyloxy)-5-(undecyloxy)benzyl)butanamide], for which the “Organs with luminescence: lung” value in series [1] is “Lung (strong),”. In addition, the Ranking of stability result in series [5] (after 42 days at 5° C.) is “Excellent”. Further, the Luminescence in series [2] (setting [7]) was 107,307.
On to `CCCCCCCCCCCCCCCOc1cc(COC(=O)CCCN2CCN(CCO)CC2)cc(OCCCCCCCC)c1` [IAJD 138, 3-(Octyloxy)-5-(pentadecyloxy)benzyl 4-(4-(2-hydroxyethyl)piperazin-1-yl)butanoate], for which the “Organs with luminescence: lung” value in series [1] is recorded as “Lung (weak),”. The Ranking of stability result in series [5] (after 35 days at 5° C.) was “Good”. Moreover, in series [2] (setting [7]), the Luminescence is 102,620. In addition, the “In vivo activity (total flux, p/s)” value in series [3] is given as 1.49 × 10^7 p/s.
For the compound `CCCCCCCCCCCCCCCCCOc1cc(COC(=O)CCCN2CCN(CCO)CC2)cc(OCCCCCCCCCCCCCCC)c1` [IAJD 152, 3-(Heptadecyloxy)-5-(pentadecyloxy)benzyl 4-(4-(2-hydroxyethyl)piperazin-1-yl)butanoate], in series [5] (after 35 days at 5° C.), the Ranking of stability entry was “Excellent”. Also, in series [2] (setting [7]), the Luminescence is recorded as 88,202. The “In vivo activity (total flux, p/s)” value in series [3] is given as 1.97 × 10^7 p/s. Besides, the “Organs with luminescence: liver” value in series [4] is “Liver (weak),”.
With `CCCCCCCCCCCOc1cc(COC(=O)c2cc(OCCOCCOCCCC(=O)CCCN3CCCCC3)c(OCCOCCOCCOCc3ccccc3)c(OCCOCCOCCOC(=O)CCCN3CCCCC3)c2)cc(OCC(CC)CCCC)c1` (stereo not drawn) [IAJD 155], in series [1], the “Organs with luminescence: lung” value is listed as “Lung (strong),”. Also, the Ranking of stability entry in series [5] (after 19 days at 5° C.) is given as “Excellent”. Besides, in series [2] (setting [7]), the Luminescence was found to be 74.
For `CCCCCCCCCCCCCCOc1cc(COC(=O)c2cc(OCCOCCOCCCC(=O)CCCN3CCCCC3)c(OCCOCCOCCOCc3ccccc3)c(OCCOCCOCCOC(=O)CCCN3CCCCC3)c2)cc(OCCCCCCCCCCC)c1` [IAJD 156] the same measures were “Lung (strong)”, “Excellent” and 59.
Take `CCCCCCCCCCCCCCCOc1cc(COC(=O)c2cc(OCCOCCOCCCC(=O)CCCN3CCCCC3)c(OCCOCCOCCOCc3ccccc3)c(OCCOCCOCCOC(=O)CCCN3CCCCC3)c2)cc(OCCCCCCCCCCC)c1` [IAJD 157]: the “Organs with luminescence: lung” value in series [1] is “Lung (strong)”. The Ranking of stability result in series [5] (after 19 days at 5° C.) is “Excellent”. The Luminescence in series [2] (setting [7]) is on record as 47.
The like results for `CCCCCCCCCCCCCCCCCOc1cc(COC(=O)c2cc(OCCOCCOCCCC(=O)CCCN3CCCCC3)c(OCCOCCOCCOCc3ccccc3)c(OCCOCCOCCOC(=O)CCCN3CCCCC3)c2)cc(OCCCCCCCCCCC)c1` [IAJD 158] were, in that order, “Lung (strong)”, “Excellent” and 83.
For `CCCCCCCCCCCCCCCCCOc1cc(CNC(=O)c2cc(OCCOCCOCCOC(=O)CCCN3CCCCC3)c(OCCCOCOCCOCc3ccccc3)c(OCCOCCOCCOC(=O)CCCN3CCCCC3)c2)cc(OCCCCCCCCCCCCCCCCC)c1` [IAJD 159], the “Organs with luminescence: lung” value in series [1] is on record as “Lung (strong)”. Moreover, the Ranking of stability entry in series [5] (after 11 days at 5° C.) is reported as “Excellent”. The Luminescence in series [2] (setting [7]) is listed as 24,055. Further, the “increase of activity, amide vs ester interconnecting group” value in series [3] (transition from 158(11/17) (ester) to 159(11/17) (amide)) was “about 6 fold”.
